From patent publication US10053422B2, “Compounds for the treatment of mTOR pathway related diseases” (Pitney Pharmaceuticals Pty Limited, priority 2012, dated 2018)
“Also recorded” adds a separate entry of the source. Read-outs that look alike come from different tables or passages of the source. Each block holds one molecule with its values, some of them ahead of it.

How the values were obtained:
[1] = test system: T98G cells (glioma); experiment: SRB cell proliferation assay, T98G; format: cell-based; conditions: Homo sapiens, glioma (Table 2), read-out: IC50 in suppressing proliferation
Experimental: (§1) Cell proliferation was assessed using the sulforhodamine B (SRB) assay. Cells seeded in 96-well plate (2,000-3,000 cell/well) were treated with MPL (0, 1, 5, 10, 25, 50 and 100 μmol/L) for 72 h. Cells were then fixed, washed and stained with 100 μl of 0.4% (w/v) SRB dissolved in 1% acetic acid. Unbound dye was removed by five washes with 1% acetic acid before air drying. Bound SRB was solubilized with 100 μl of 10 mM Tris base (pH 10.5) and the absorbance read at 570 nm. Exactly the same procedure was used to assess MPL-SO2. Both agents were dissolved in ethanol and diluted with media to give the final concentrations required for cell culture assays.

[2] = test system: T47-D cells; experiment: SRB cell proliferation assay, T47-D; format: cell-based; conditions: Homo sapiens, T47D, breast cancer (Table 2), read-out: IC50 in suppressing proliferation
Experimental: as §1

[3] = test system: CHO (Chinese hamster ovarian cells); experiment: SRB cell proliferation assay, CHO; format: cell-based; conditions: Cricetulus griseus
Experimental: as §1

[4] = test system: OVCAR-3 cells; experiment: SRB cell proliferation assay, OVCAR-3; format: cell-based, human
Experimental: as §1

[5] = test system: HeLa cells; experiment: SRB cell proliferation assay, HeLa; format: cell-based; conditions: Homo sapiens, epithelial (adenocarcinoma) (Table 2), read-out: IC50 in suppressing proliferation
Experimental: as §1

[6] = test system: HaCat keratinocyte; experiment: SRB cell proliferation assay, HaCat; format: cell-based; conditions: Homo sapiens, keratinocyte (Table 2), read-out: IC50 in suppressing proliferation
Experimental: as §1

[7] = test system: 3T3 fibroblast; experiment: SRB cell proliferation assay, 3T3; format: cell-based; conditions: 3T3, fibroblast (Table 2); read-out: IC50 in suppressing proliferation
Experimental: as §1

[8] = test system: LN-18 cells (glioma); experiment: SRB cell proliferation assay, LN-18; format: cell-based; conditions: Homo sapiens; LN-18, glioma (Table 2); read-out: IC50 in suppressing proliferation
Experimental: as §1

[9] = test system: HCT-116 cells (colorectal cancer); experiment: SRB cell proliferation assay, HCT-116; format: cell-based; conditions: Homo sapiens; HCT-116, colorectal cancer (Table 2); read-out: IC50 in suppressing proliferation
Experimental: as §1

[10] = test system: MCF-7 cells; experiment: SRB cell proliferation assay, MCF-7; format: cell-based; conditions: Homo sapiens, MCF7
Experimental: as §1

[11] = test system: A2780 cells; experiment: SRB cell proliferation assay, A2780; format: cell-based, human
Experimental: as §1

[12] = test system: IGROV-1 cells; experiment: SRB cell proliferation assay, IGROV-1; format: cell-based; conditions: Homo sapiens; IGROV-1, ovarian cancer (Table 2); read-out: IC50 in suppressing proliferation
Experimental: as §1

[13] = test system: SKOV-3 cells; experiment: SRB cell proliferation assay, SKOV-3; format: cell-based; conditions: Homo sapiens, SK-OV-3
Experimental: as §1

[14] = test system: MDA-MB-231 cells; experiment: SRB cell proliferation assay, MDA-MB-231; format: cell-based; conditions: Homo sapiens
Experimental: as §1

[15] = test system: 1A9 cells; experiment: SRB cell proliferation assay, 1A9; format: cell-based; conditions: Homo sapiens
Experimental: as §1

[16] = test system: HUVEC (human umbilical vein endothelial cells); experiment: SRB cell proliferation assay, HUVEC; format: cell-based
Experimental: as §1

[17] = test system: U87 cells (glioblastoma); experiment: SRB cell proliferation assay, U87; format: cell-based; conditions: Homo sapiens, U-87 MG
Experimental: as §1

[18] = test system: HT-29 5m11 cells (colorectal cancer); experiment: SRB cell proliferation assay, HT-29 5m11; format: cell-based; conditions: Homo sapiens; HT-29 5m11, colorectal cancer (Table 2); read-out: IC50 in suppressing proliferation
Experimental: as §1

[19] = test system: U87 glioma cells; experiment: Autophagy (vacuoles, LC3-II), U87; format: cell-based; conditions: U87 glioma cells
From the text: Autophagy is a characteristic of mTOR inhibition.
Concentration-dependent conversion of LC3-I to LC3-II confirms the increasing phenomenon of autophagy in these cells.

[20] = test system: HT-29 cells (colorectal cancer); experiment: SRB cell proliferation assay, HT-29; format: cell-based; conditions: Homo sapiens; HT-29, colorectal cancer (Table 2); read-out: IC50 in suppressing proliferation
Experimental: as §1

[21] = test system: cancer cell lines; experiment: SRB cell proliferation assay, range of cancer cell lines (general statements); format: cell-based
Experimental: as §1
In brief, MPL and MPL-SO2 were tested in vitro against a wide range of cancer cell-lines with extensively different disease characteristics. For further detailed studies, human ovarian cancer cell lines OVCAR-3 and A2780 were chosen. Additionally, normal human ovarian surface epithelial cells (HOSE) and were cultured in the presence of MPL (0, 5, 10, 25, 50 and 100 μM) for 72 h. Cell viability was assessed using Trypan blue assay (FIG. 9). Similarly, effect of MPL on the growth of normal epithelial, endothelial, embryonic and fetal cells were investigated (FIG. 10) while cell proliferation was assessed using the SRB assay (FIG. 11). Control (vehicle treated) cells were taken to present 100% proliferation and the MPL treated groups are expressed as percentage of control±SEM. Each drug concentration was tested in quadruplicate and each experiment was repeated at least twice. For statistical comparisons, each drug treated group is compared to the control group using Student's t test. To examine concentration dependent drug effect, analysis of variance (ANOVA) was used. P values are: *=<0.05; **<0.01 and ***=<0.001, **** p<0.0001. […] In order to find out if the MPL effect is mediated through the nicotinic acetyl choline receptor and in particular the nACHR7 subtype, cells were pretreated with antagonists and then exposed to MPL (FIG. 12).

[22] = test system: nematodes; conditions: previously shown; cited from earlier work
[23] = CHO = Chinese hamster ovarian cells (Table 3), read-out: IC50 μM CHO
[24] = OVCAR-3, human epithelial ovarian cancer (Table 3), read-out: IC50 μM OVCAR-3
[25] = A2780, human epithelial ovarian cancer (Table 3), read-out: IC50 μM A2780
[26] = HUVEC = human umbilical vein endothelial cells (Table 3), read-out: IC50 μM HUVEC

IC50 [1]: 25.4 ± 0.28 µM | IC50 ([4]; Homo sapiens, OVCAR-3, ovarian cancer (Table 2), read-out: IC50 in suppressing proliferation): 5.5 ± 1.3 µM | IC50 ([4]; Homo sapiens, OVCAR-3, ovarian cancer, 72 h in vitro treatment, SRB assay (Table 1), read-out: IC50): 5.5 µM | IC50 [5]: 18.2 ± 2.6 µM | IC50 [8]: 6.64 ± 0.71 µM | IC50 [9]: 22.5 ± 5.7 µM | IC50 ([10]; MCF-7, breast cancer (Table 2), read-out: IC50 in suppressing proliferation): 8 ± 0.7 µM | IC50 ([10]; MCF-7, breast cancer, 72 h, SRB assay (Table 1), read-out: IC50): 7.3 µM | IC50 ([11]; Homo sapiens, A2780, ovarian cancer (Table 2), read-out: IC50 in suppressing proliferation): 4.2 µM | IC50 ([11]; Homo sapiens, A2780, ovarian cancer, 72 h, SRB assay (Table 1), read-out: IC50): 4.2 µM | IC50 ([13]; SKOV-3, ovarian cancer (Table 2), read-out: IC50 in suppressing proliferation): 26 µM | IC50 ([13]; SKOV-3, ovarian cancer, 72 h, SRB assay (Table 1), read-out: IC50): 26 µM | IC50 ([14]; MDA-MB-231, breast cancer (Table 2), read-out: IC50 in suppressing proliferation): 21.6 µM | IC50 ([14]; MDA-MB-231, breast cancer, 72 h, SRB assay (Table 1), read-out: IC50): 23.6 µM | IC50 ([17]; U87, glioblastoma, 72 h, SRB assay (Table 1), read-out: IC50): 20.5 µM | IC50 ([17]; U87, glioma (Table 2), read-out: IC50 in suppressing proliferation): 20.5 ± 1 µM | IC50 [18]: 21.7 µM | IC50 [20]: 2750 ± 700 nM
Structure (SMILES): C[C@](C#N)(COc1cc(C#N)ccc1C(F)(F)F)NC(=O)c1ccc(S(=O)(=O)C(F)(F)F)cc1 [MPL-SO2, monepantel sulphone]
IC50 [2]: 10.2 ± 0.6 µM | IC50 ([3]; CHO (Table 2), read-out: IC50 in suppressing proliferation): 73.7 ± 6 µM | IC50 ([3]; CHO, 72 h, SRB assay (Table 1), read-out: IC50): 73.7 µM | IC50 [6]: 42.7 ± 8 µM | IC50 [7]: 11.2 ± 1.1 µM | IC50 [12]: 4.4 ± 1.5 µM | IC50 ([15]; 1A9, ovarian cancer (Table 2), read-out: IC50 in suppressing proliferation): 3.42 ± 0.1 µM | IC50 ([15]; 1A9, ovarian cancer, 72 h, SRB assay (Table 1), read-out: IC50): 4.8 µM | IC50 ([16]; Homo sapiens, HUVEC (Table 2), read-out: IC50 in suppressing proliferation): 47 µM | IC50 ([16]; Homo sapiens, HUVEC, 72 h, SRB assay (Table 1), read-out: IC50): 47.8 µM | formation of vacuoles (autophagy) [19]: formation of vacuoles | viability of cancer cell-lines growing in culture [21]: reduced viability | potency compared with MPL in suppressing cancer cell proliferation ([21]; SRB proliferation assay): as potent as MPL; also recorded: as effective as MPL

IC50 [4, 24]: 18.6 ± 2.4 µM | IC50 [11, 25]: 27.3 ± 0.5 µM
Structure (SMILES): CC(C#N)(COc1cc(F)ccc1Cl)NC(=O)c1ccc(OC(F)(F)F)cc1 (stereo not shown) [AAD 004]
IC50 [3, 23]: 57.3 µM | IC50 [16, 26]: 93 µM

IC50 [4, 24]: 14.7 ± 1.25 µM | IC50 [11, 25]: 17 ± 1.2 µM
Structure (SMILES): CC(C#N)(COc1cc(F)c(F)cc1Br)NC(=O)c1ccc(OC(F)(F)F)cc1 (stereo not shown) [AAD 1336]
IC50 [3, 23]: 31.8 µM | ratio of IC50 values (normal cell/cancer cell) ([4]; results of Table 3): particularly high activity | IC50 [16, 26]: 61.3 µM

IC50 [4, 24]: 8 ± 0.7 µM | IC50 [11, 25]: 14.8 ± 0.45 µM
Structure (SMILES): C[C@@](C#N)(COc1cc(C#N)ccc1C(F)(F)F)NC(=O)c1ccc(SC(F)(F)F)cc1 [AAD 2224, N-[(1R)-1-cyano-2-(5-cyano-2-trifluoromethyl-phenoxy)-1-methyl-ethyl]-4-trifluoromethylsulfanyl-benzamide]
anthelmintic activity [22]: no anthelmintic activity | IC50 [3, 23]: 23.4 µM | potency of MPL-(R) compared with MPL-(S) ([4]; results of Table 3): equipotent | ratio of IC50 values (normal cell/cancer cell) ([4]; results of Table 3): particularly high activity | IC50 [16, 26]: 109 µM

IC50 [4, 24]: 12.9 ± 0.3 µM | IC50 [11, 25]: 19.5 ± 4.1 µM
Structure (SMILES): CC(C#N)(COc1cc(F)c(F)cc1C(F)(F)F)NC(=O)c1ccc(OC(F)(F)F)cc1 (stereo not shown) [AAD 1470]
IC50 [3, 23]: 32.2 µM | ratio of IC50 values (normal cell/cancer cell) ([4]; results of Table 3): particularly high activity | IC50 [16, 26]: 74 µM
